Experimental findings from US9084792B2 (Zhejiang Charioteer Pharmaceutical Co., Ltd., priority 2009, dated 2015) are described below.

Series [1] in a line: stability test of crystalline form on storage. The format is physicochemical. As to conditions: room temperature, relative humidity of less than 50%. The text has this:
(2) It has good stability of crystalline form. […] It can be stored in the dark, cool and dry place for a long time.

Series [2] is described as follows: thermal decomposition point. It counts as physicochemical. As to the method:
(1) It has the property required for large-scale preparation of drugs: for example, it has thermal decomposition point of over 250° C., and good fluidity and bulk density, which are in favor of drug preparation and industrial production on a large scale.

As to `Nc1nc2c(ncn2COCCO)c(=O)[nH]1.Nc1nc2c(ncn2COCCO)c(=O)[nH]1.Nc1nc2c(ncn2COCCO)c(=O)[nH]1.O.O` [acyclovir 2/3 hydrate], in series [1], the storage time result is reported as “more than one year”. Moreover, in series [1] (more than one year), the “content during the storage time” value was “the content does not reduce” and the “crystalline form during the storage time” value is reported as “the crystalline form remains the same”. Moreover, the thermal decomposition point result in series [2] is “over 250 °C”.
